From ChEMBL document CHEMBL5126650, “Novel IRAK Degraders for Treating Cancer” (ACS Med Chem Lett, 2022) come the findings set out here.

The target in the test is Protein cereblon/Interleukin-1 receptor-associated kinase 4 (Homo sapiens, UniProt Q9NWZ3+Q96SW2). The test can be described thus: Protac activity at E3 ubiquitin ligase/IRAK4 in human OCILY10 cells assessed as degradation of IRAK4 incubated for 4 hr by MSD assay. It counts as cell-based.
Chain of Protein cereblon/Interleukin-1 receptor-associated kinase 4 (Q9NWZ3 whole entry): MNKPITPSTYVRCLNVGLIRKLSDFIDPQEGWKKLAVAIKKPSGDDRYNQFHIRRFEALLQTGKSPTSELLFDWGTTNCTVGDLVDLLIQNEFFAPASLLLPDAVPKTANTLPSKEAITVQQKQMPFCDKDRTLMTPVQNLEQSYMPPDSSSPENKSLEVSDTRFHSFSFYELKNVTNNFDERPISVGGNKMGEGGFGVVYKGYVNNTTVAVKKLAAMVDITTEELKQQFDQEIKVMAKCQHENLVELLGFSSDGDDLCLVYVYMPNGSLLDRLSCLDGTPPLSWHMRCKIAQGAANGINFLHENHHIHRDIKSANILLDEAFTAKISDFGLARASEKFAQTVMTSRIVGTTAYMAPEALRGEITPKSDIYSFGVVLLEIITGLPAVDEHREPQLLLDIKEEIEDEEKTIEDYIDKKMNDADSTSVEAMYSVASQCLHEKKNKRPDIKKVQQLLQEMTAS
Chain of Protein cereblon/Interleukin-1 receptor-associated kinase 4 (Q96SW2 whole entry): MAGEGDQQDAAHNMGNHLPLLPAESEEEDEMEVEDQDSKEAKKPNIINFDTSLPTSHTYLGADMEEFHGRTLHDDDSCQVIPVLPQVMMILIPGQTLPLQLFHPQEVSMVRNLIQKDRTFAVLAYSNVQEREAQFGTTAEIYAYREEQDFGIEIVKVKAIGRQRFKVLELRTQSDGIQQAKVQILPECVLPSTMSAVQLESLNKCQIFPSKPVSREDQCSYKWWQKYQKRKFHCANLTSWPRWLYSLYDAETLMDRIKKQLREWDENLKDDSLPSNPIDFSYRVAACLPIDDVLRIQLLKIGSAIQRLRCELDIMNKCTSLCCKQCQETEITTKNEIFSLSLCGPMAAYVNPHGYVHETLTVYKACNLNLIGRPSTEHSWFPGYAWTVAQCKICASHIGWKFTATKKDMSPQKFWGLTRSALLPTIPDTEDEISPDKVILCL
One may read the DC50 as the concentration at which degradation of the target reaches its halfway point. With `CN(C[C@H]1CC[C@H](n2cc3cc(NC(=O)c4cccc(C(F)(F)F)n4)ncc3n2)CC1)C1CCN(c2ccn3c(N4CCC(=O)NC4=O)cnc3c2)CC1`, the DC50 was less than 10 nM.
With `COc1cc2nn([C@H]3CC[C@H](CN(C)C4CCN(c5ccc6c(N7CCC(=O)NC7=O)cncc6c5)CC4)CC3)cc2cc1NC(=O)c1cccc(C(F)(F)F)n1`, the DC50 was less than 10 nM.
With `CN(C[C@H]1CC[C@H](n2cc3cc(NC(=O)c4cccc(C(F)(F)F)n4)c(C(C)(C)O)cc3n2)CC1)C1CCN(c2ccc3c(N4CCC(=O)NC4=O)cncc3c2)CC1`, the DC50 was less than 10 nM.
Regarding `CN(C[C@H]1CC[C@H](n2cc3cc(NC(=O)c4cccc(C(F)(F)F)n4)ccc3n2)CC1)C1CCN(c2ccn3c(N4CCC(=O)NC4=O)cnc3c2)CC1`, the DC50 was less than 10 nM.
Regarding `COc1cc2nc([C@H]3CC[C@H](CN4CCC(c5ccn6c(N7CCC(=O)NC7=O)cnc6c5)CC4)CC3)sc2cc1NC(=O)c1cccc(C(F)(F)F)n1`, the DC50 is less than 10 nM.
Consider `CN(C[C@H]1CC[C@H](n2cc3cc(NC(=O)c4cccc(C(F)(F)F)n4)c(C(C)(C)O)cc3n2)CC1)C1CCN(c2ccn3c(N4CCC(=O)NC4=O)cnc3c2)CC1`, for which the DC50 is less than 10 nM.
